# pIC50: −log10 of the molar value.
# Target: T1, HCV RdRp NS5B d21BK (BK strain, 1b subtype) (Hepatitis C virus genotype 1b, UniProt P26663)
# T1 construct: NS5B from the BK strain (1b subtype) is expressed in E. coli as a protein in which the 21 C-terminal amino acids are replaced; made in house; host or cells: E. coli
# Test: HCV polymerase (NS5B) RNA-dependent RNA polymerase inhibition, 33P-GTP filter assay
# Assay type: biochemical
# Conditions: in vitro; NS5B BK strain (1b subtype), 24 nM enzyme, 2 h at room temperature; read-out: HCV Polymerase Median IC50
# From the text: The ability of the compounds of the present invention to inhibit hepatitis C polymerase was established by the following experimental procedure:
# NS5B from the BK strain (1b subtype) is expressed in E. coli as a protein in which the 21 C-terminal amino acids are replaced with a short linker and a hexahistidine tag (GSHHHHHH). The purified protein is mixed with radioactive nucleotides and allowed to replicate a heteropolymeric RNA substrate, primed by an endogenous short hairpin, resulting in an approximately 760 nt product. The radioactive product is captured on a filter and quantitated after removal of the unincorporated nucleotides.
# (1) Compounds 10 μl at 10 μg/ml in 15% DMSO
# Add 20 μl enzyme mix into each well of the assay plate. Incubate compound and enzyme at room temperature for 15 minutes.
# (3) Template Mix—Prepare Ahead.
# Spin down a tube of RNA (5 μg/tube stored in 75% ethanol and 0.3 M sodium acetate) in a microcentrifuge for 20 min. at 4° C. One tube is enough for 1 to 1½ plates. Remove as much ethanol from the tube as possible by inverting the tube. Be gentle, pellet RNA may not adhere to the tube. Vacuum dry the RNA. Resuspend the RNA by adding 1 ml of DEPC water, close the cap of the tube tightly. To dissolve RNA, incubate RNA solution on ice for ˜60 min. and gently vortex. Spin briefly to ensure all RNA solution is down to the bottom of the tube before opening cap. Gently transfer RNA solution into a 5 ml or larger tube. Add another 3 ml of DEPC water (total 4 ml of volume).
# Add the following volumes of reagents.
# Add 20 μl template mix per reaction (i.e. 20 ng of POF per reaction or ˜3 nM)
# (4) Incubate reaction at room temperature (22-25° C.) for 2 hours.
# (5) Stop reaction by adding 50 μl of 170 mM EDTA.
# Final concentration of EDTA is 85 mM.
# (6) Prewet filters of Millipore Multiscreen filter plate by adding 200 μl of 0.5 M sodium phosphate buffer, pH 7.0 into each well. Let stand at room temperature for 2-3 min.
# (7) Place the Multiscreen filter plate onto a Millipore Manifold and turn on vacuum to allow buffer to flow through. Turn off vacuum. Transfer 80 μl of the reaction product into each well of the filter plate. Let stand for 2-3 min. Turn on vacuum to filter reaction product.
# (8) Turn off vacuum. Add 200 μl of 0.5 M sodium phosphate buffer, pH 7.0 into each well to wash filter. Turn on vacuum.
# Repeat step (8) three more times.
# (9) Remove polypropylene bottom. Spot dry filter at the bottom with paper towel. Air dry filter plate on a bench for 1 hr. Add 40 μl Super Mix scintillant. Seal top of the plate with a tape. Place plate into a Packard carrier or MicroBeta carrier.
# (10) Count plate using a Packard Topcount or MicroBeta counter. Program 10 for ^33P in Top count or ^33P program in micro-beta.
# Percent inhibition is calculated after background subtraction as a percent reduction of activity relative to the positive control (average value of the plate excluding the negative controls).
# T1 sequence (P26663 2420-2997, looked up, natural form): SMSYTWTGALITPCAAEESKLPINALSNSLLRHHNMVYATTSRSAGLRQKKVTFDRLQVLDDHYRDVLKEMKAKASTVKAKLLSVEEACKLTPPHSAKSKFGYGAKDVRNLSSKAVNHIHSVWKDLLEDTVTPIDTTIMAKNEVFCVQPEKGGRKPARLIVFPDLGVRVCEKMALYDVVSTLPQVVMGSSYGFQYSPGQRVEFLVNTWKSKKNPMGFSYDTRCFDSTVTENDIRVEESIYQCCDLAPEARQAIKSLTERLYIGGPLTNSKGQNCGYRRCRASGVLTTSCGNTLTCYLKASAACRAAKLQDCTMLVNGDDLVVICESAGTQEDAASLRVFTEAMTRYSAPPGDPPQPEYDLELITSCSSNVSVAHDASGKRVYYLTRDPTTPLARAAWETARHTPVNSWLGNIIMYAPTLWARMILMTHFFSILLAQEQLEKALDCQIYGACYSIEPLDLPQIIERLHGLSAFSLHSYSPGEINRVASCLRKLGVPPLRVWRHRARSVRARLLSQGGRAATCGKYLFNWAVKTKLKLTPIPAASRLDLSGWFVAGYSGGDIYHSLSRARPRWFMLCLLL
row,Compound,pIC50
1,"O=S(=O)(c1cc(Cl)cc(Cl)c1O)N1CCC[C@H]1c1nn[nH]n1 [Example 1, 2,4-dichloro-6-{[(2S)-2-(2H-tetrazol-5-yl)pyrrolidin-1-yl]sulfonyl}phenol]",6.25
2,"N#C[C@@H]1CCCN1S(=O)(=O)c1cc(Cl)cc(Cl)c1O [Example 2, (2S)-1-[(3,5-dichloro-2-hydroxyphenyl)sulfonyl]pyrrolidine-2-carbonitrile]",5.98
3,"O=C(O)[C@@H]1C[C@@H](O)CN1S(=O)(=O)c1cc(Cl)c(Cl)c(Cl)c1O [Example 3, (4R)-4-hydroxy-1-[(3,4,5-trichloro-2-hydroxyphenyl)sulfonyl]-L-proline]",7.15
4,"O=C(O)[C@@H]1CCCN1S(=O)(=O)c1cc(Cl)c(Cl)c(Cl)c1O [Example 4, 1-[(3,4,5-trichloro-2-hydroxyphenyl)sulfonyl]-L-proline]",7.10
5,"O=C(O)[C@@H]1CCCN1S(=O)(=O)c1cc(Cl)cc(Br)c1O [Example 5, 1-[(3-bromo-5-chloro-2-hydroxyphenyl)sulfonyl]-L-proline]",6.59
6,"O=C(O)[C@@H]1C[C@@H](O)CN1S(=O)(=O)c1cc(Br)cc(Br)c1O [Example 6, (4R)-1-[(3,5-dibromo-2-hydroxyphenyl)sulfonyl]-4-hydroxy-L-proline]",6.34
7,"O=C(O)[C@@H]1C[C@@H](O)CN1S(=O)(=O)c1cc(Cl)cc(Br)c1O [Example 7, (4R)-1-[(3-bromo-5-chloro-2-hydroxyphenyl)sulfonyl]-4-hydroxy-L-proline]",6.33
8,"O=C(O)[C@@H]1CCCN1S(=O)(=O)c1cc(Br)cc(Cl)c1O [Example 8, 1-[(5-bromo-3-chloro-2-hydroxyphenyl)sulfonyl]-L-proline]",6.40
9,"O=C(O)[C@@H]1CCCN1S(=O)(=O)c1cc(Br)cc(Br)c1O [Example 9, 1-[(3,5-dibromo-2-hydroxyphenyl)sulfonyl]-L-proline]",6.25
10,"O=C(O)[C@@H]1C[C@@H](O)CN1S(=O)(=O)c1cc(Cl)cc(Cl)c1O [Example 10, (4R)-1-[(3,5-dichloro-2-hydroxyphenyl)sulfonyl]-4-hydroxy-L-proline]",6.17
11,"CO[C@@H]1C[C@@H](C(=O)O)N(S(=O)(=O)c2cc(Cl)cc(Cl)c2O)C1 [Example 12, (4R)-1-[(3,5-dichloro-2-hydroxyphenyl)sulfonyl]-4-methoxy-L-proline]",6.04
12,"O=C(O)[C@H]1CCCN1S(=O)(=O)c1cc(Cl)c(Cl)c(Cl)c1O [Example 13, 1-[(3,4,5-trichloro-2-hydroxyphenyl)sulfonyl]-D-proline]",5.93
13,"O=C(O)[C@@H]1CCCN1S(=O)(=O)c1cc(F)cc(Cl)c1O [Example 14, 1-[(3-chloro-5-fluoro-2-hydroxyphenyl)sulfonyl]-L-proline]",5.69
14,"O=C(O)[C@H]1C[C@H](O)CN1S(=O)(=O)c1cc(Cl)c(Cl)c(Cl)c1O [Example 15, (4S)-4-hydroxy-1-[(3,4,5-trichloro-2-hydroxyphenyl)sulfonyl]-D-proline]",5.91
15,"CC(=O)[C@@H]1CCCN1S(=O)(=O)c1cc(Cl)cc(Cl)c1O [Example 16, 1-{(2S)-1-[(3,5-dichloro-2-hydroxyphenyl)sulfonyl]pyrrolidin-2-yl}ethanone]",5.58
16,"Cc1cc(N)c(S(=O)(=O)N2CCC[C@@H]2C(=O)O)cc1Cl [Example 17, 1-[(2-amino-5-chloro-4-methylphenyl)sulfonyl]-D-proline]",5.33
17,"O=C(O)[C@@H]1C[C@@H](O)CN1S(=O)(=O)c1cc(F)cc(Cl)c1O [Example 18, (4R)-1-[(3-chloro-5-fluoro-2-hydroxyphenyl)sulfonyl]-4-hydroxy-L-proline]",5.48
18,"Cc1cc(N)c(S(=O)(=O)N2C[C@@H](O)C[C@@H]2C(=O)O)cc1Cl [Example 19, (4S)-1-[(2-amino-5-chloro-4-methylphenyl)sulfonyl]-4-hydroxy-D-proline]",5.39
19,"Cc1cc(N)c(S(=O)(=O)N2CCC[C@H]2C(=O)O)cc1Cl [Example 20, 1-[(2-amino-5-chloro-4-methylphenyl)sulfonyl]-L-proline]",5.23

row,Compound,pIC50
1,"O=S(=O)(c1cc(Cl)cc(Cl)c1O)N1CCC[C@H]1CO [Example 21, 2,4-dichloro-6-{[(2S)-2-(hydroxymethyl)pyrrolidin-1-yl]sulfonyl}phenol]",5.21
2,"O=C(O)[C@H]1CCCN1S(=O)(=O)c1cc(Br)cc(Cl)c1O [Example 22, 1-[(5-bromo-3-chloro-2-hydroxyphenyl)sulfonyl]-D-proline]",5.32
3,"O=S(=O)(c1cc(Cl)cc(Cl)c1O)N1CCCC1 [Example 23, 2,4-dichloro-6-(pyrrolidin-1-ylsulfonyl)phenol]",5.31
4,"Cc1cc(S(=O)(=O)N2C[C@@H](O)C[C@@H]2C(=O)O)c(N)cc1Cl [Example 24, (4S)-1-[(2-amino-4-chloro-5-methylphenyl)sulfonyl]-4-hydroxy-D-proline]",5.29
5,"Cc1cc(N)c(S(=O)(=O)N2C[C@H](O)C[C@H]2C(=O)O)cc1Cl [Example 25, (4R)1-[(2-amino-5-chloro-4-methylphenyl)sulfonyl]-4-hydroxy-L-proline]",5.12
6,"Cc1cc(NC(=O)c2cccs2)c(S(=O)(=O)N2CCC[C@H]2C(=O)O)cc1Cl [Example 26, 1-({5-chloro-4-methyl-2-[(2-thienylcarbonyl)amino]phenyl}sulfonyl)-L-proline]",5.16
7,"O=C(O)[C@H]1CCCN1S(=O)(=O)c1cc(Br)cc(Br)c1O [Example 27, 1-[(3,5-dibromo-2-hydroxyphenyl)sulfonyl]-D-proline]",5.15
8,"Cc1cc(S(=O)(=O)N2C[C@H](O)C[C@H]2C(=O)O)c(N)cc1Cl [Example 28, (4R)-1-[(2-amino-4-chloro-5-methylphenyl)sulfonyl]-4-hydroxy-L-proline]",5.00
9,"CCC(=O)[C@@H]1CCCN1S(=O)(=O)c1cc(Cl)cc(Cl)c1O [Example 29, 1-{(2S)-1-[(3,5-dichloro-2-hydroxyphenyl)sulfonyl]pyrrolidin-2-yl}propan-1-one]",5.14
10,"O=C(c1ccccc1)[C@@H]1CCCN1S(=O)(=O)c1cc(Cl)cc(Cl)c1O [Example 30, {(2S)-1-[(3,5-dichloro-2-hydroxyphenyl)sulfonyl]pyrrolidin-2-yl}(phenyl)methanone]",5.12
11,"O=C(O)[C@H]1CCCN1S(=O)(=O)c1cc(Cl)cc(Cl)c1O [Example 31, 1-[(3,5-dichloro-2-hydroxyphenyl)sulfonyl]-D-proline]",5.19
12,"O=C(O)[C@@H]1CCCN1S(=O)(=O)c1c(Cl)cc(Cl)cc1Cl [Example 32, 1-[(2,4,6-trichlorophenyl)sulfonyl]-L-proline]",5.02
13,"Cc1cc(NC(=O)C2CC2)c(S(=O)(=O)N2CCC[C@H]2C(=O)O)cc1Cl [Example 33, 1-({5-chloro-2-[(cyclopropylcarbonyl)amino]-4-methylphenyl}sulfonyl)-L-proline]",5.06
14,"Cc1cc(NC(=O)c2ccccc2)c(S(=O)(=O)N2CCC[C@H]2C(=O)O)cc1Cl [Example 34, 1-{[2-(benzoylamino)-5-chloro-4-methylphenyl]sulfonyl}-L-proline]",5.00
15,"Cc1ccc(S(=O)(=O)N2CCC[C@H]2C(=O)O)cc1Cl [Example 35, 1-[(3-chloro-4-methylphenyl)sulfonyl]-L-proline]",4.99
16,"O=C(O)[C@@H]1CCCN1S(=O)(=O)c1cc(Cl)c(Cl)cc1Cl [Example 36, 1-[(2,4,5-trichlorophenyl)sulfonyl]-L-proline]",4.66
17,"O=C(O)[C@@H]1CCCCN1S(=O)(=O)c1cc(Cl)c(Cl)c(Cl)c1O [Example 37, (2S)-1-[(3,4,5-trichloro-2-hydroxyphenyl)sulfonyl]piperidine-2-carboxylic acid]",7.10
18,"O=C(O)[C@H]1CCCCN1S(=O)(=O)c1cc(Cl)c(Cl)c(Cl)c1O [Example 38, (2R)-1-[(3,4,5-trichloro-2-hydroxyphenyl)sulfonyl]piperidine-2-carboxylic acid]",6.42

# — patent US20070225344A1, “Sulfonamide derivatives to treat infection with hepatitis C virus” (priority 2006, published 2007)
